Results: US11046699B2, “Pyrazolo-pyrimidin-amino-cycloalkyl compounds and their therapeutic uses” (RAPT THERAPEUTICS, INC., priority 2018, dated 2021)

target: GCN2 (Homo sapiens, UniProt Q9P2K8); test: GCN2 enzymatic endpoint assay: phosphorylation of GFP-eIF2α measured by TR-FRET (Lanthascreen); assay type: biochemical; conditions: tested as described in Example 77; compound and/or hydrochloride, dihydrochloride or trifluoroacetic acid salt; read-out: IC 50 Activity
Summary of the method: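 Endpoint GCN2 reaction with low ATP (2 μM) and 80 nM GFP-eIF2α, room temperature, 90 minutes. Detection mix with EDTA and Tb-labelled antibody; 520 nm/495 nm emission ratio reported.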

GCN2, sequence (Q9P2K8 whole entry): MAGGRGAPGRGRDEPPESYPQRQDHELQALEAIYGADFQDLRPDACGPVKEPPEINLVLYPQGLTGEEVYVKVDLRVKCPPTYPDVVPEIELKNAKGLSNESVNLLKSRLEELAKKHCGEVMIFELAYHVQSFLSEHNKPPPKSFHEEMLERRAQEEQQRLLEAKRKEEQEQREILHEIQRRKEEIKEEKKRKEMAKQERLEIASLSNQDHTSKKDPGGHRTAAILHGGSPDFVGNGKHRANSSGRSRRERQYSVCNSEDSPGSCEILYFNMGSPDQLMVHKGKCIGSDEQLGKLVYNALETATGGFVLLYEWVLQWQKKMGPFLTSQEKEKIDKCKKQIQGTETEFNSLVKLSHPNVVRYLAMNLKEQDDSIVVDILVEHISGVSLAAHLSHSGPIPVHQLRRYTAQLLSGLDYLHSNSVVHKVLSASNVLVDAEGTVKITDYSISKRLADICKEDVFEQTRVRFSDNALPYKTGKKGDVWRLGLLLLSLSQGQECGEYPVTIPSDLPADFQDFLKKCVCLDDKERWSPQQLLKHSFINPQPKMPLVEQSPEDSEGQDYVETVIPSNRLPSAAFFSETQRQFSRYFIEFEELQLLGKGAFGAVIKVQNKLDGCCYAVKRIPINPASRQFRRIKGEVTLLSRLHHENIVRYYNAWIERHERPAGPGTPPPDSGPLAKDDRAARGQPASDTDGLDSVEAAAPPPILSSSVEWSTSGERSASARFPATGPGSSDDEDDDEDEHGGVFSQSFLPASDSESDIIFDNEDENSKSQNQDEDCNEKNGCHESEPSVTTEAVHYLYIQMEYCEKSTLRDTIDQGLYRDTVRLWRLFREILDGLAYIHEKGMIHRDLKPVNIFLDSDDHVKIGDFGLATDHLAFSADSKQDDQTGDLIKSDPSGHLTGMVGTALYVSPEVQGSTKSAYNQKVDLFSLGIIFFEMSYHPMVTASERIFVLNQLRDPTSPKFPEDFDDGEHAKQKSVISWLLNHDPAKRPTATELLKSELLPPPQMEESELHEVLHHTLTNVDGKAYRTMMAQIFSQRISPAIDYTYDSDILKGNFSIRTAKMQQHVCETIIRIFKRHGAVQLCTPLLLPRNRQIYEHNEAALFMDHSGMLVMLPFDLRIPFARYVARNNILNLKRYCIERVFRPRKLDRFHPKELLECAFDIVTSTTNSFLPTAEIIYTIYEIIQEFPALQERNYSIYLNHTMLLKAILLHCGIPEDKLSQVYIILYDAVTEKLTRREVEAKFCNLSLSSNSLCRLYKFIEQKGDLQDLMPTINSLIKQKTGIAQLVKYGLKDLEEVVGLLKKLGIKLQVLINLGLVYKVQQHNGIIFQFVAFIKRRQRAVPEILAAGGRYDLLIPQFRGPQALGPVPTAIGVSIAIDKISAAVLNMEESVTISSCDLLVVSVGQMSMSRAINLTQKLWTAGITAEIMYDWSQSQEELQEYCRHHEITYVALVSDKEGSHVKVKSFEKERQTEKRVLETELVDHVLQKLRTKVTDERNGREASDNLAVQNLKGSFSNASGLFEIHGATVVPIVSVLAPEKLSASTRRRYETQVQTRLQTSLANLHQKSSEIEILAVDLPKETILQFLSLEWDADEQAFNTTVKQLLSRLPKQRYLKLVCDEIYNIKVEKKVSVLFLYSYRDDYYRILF

SMILES	IC50 [µM]
CNC(=O)[C@@H]1CC[C@@H](Nc2ncc3c(Br)nn(-c4cc(OC(F)(F)F)c5ncccc5c4)c3n2)C1 [(1R,3R)-3-((3-bromo-1-(8-(trifluoro-methoxy)quinolin-6-yl)-1H-pyrazolo [3,4-d]pyrimidin-6-yl)amino)-N-methylcyclopentane-1-carboxamide]	0.025 to 0.2
COCCNC(=O)[C@@H]1CC[C@@H](Nc2ncc3c(Br)nn(-c4cc(C(F)(F)F)c5ncccc5c4)c3n2)C1 [(1R,3R)-3-((3-bromo-1-(8-(trifluoromethyl)quinolin-6-yl)-1H-pyrazolo[3,4-d]pyrimidin-6-yl)amino)-N-(2-methoxyethyl)cyclopentane-1-carboxamide]	0.2 to 0.5
O=C(N[C@@H]1CCOC1)[C@@H]1CC[C@@H](Nc2ncc3c(Br)nn(-c4cc(Cl)c5ncccc5c4)c3n2)C1 [(1R,3R)-3-((3-bromo-1-(8-chloroquinolin-6-yl)-1H-pyrazolo[3,4-d]pyrimidin-6-yl)amino)-N-((R)-tetrahydrofuran-3-yl)cyclopentane-1-carboxamide]	< 0.025
N#Cc1cc(-n2nc(Br)c3cnc(N[C@@H]4CC[C@@H](C(=O)NC5CCS(=O)(=O)CC5)C4)nc32)cc2cccnc12 [(1R,3R)-3-((3-bromo-1-(8-cyanoquinolin-6-yl)-1H-pyrazolo[3,4-d]pyrimidin-6-yl)amino)-N-(1,1-dioxidotetrahydro-2H-thiopyran-4-yl)cyclopentane-1-carboxamide]	0.025 to 0.2
N#Cc1cc(-n2nc(Br)c3cnc(N[C@@H]4CC[C@@H](C(=O)N[C@@H]5CNC[C@@H]5F)C4)nc32)cc2cccnc12 [(1R,3R)-3-((3-bromo-1-(8-cyanoquinolin-6-yl)-1H-pyrazolo[3,4-d]pyrimidin-6-yl)amino)-N-((3R,4S)-4-fluoropyrrolidin-3-yl)cyclo-pentane-1-carboxamide]	< 0.025
N#Cc1cc(-n2nc(Br)c3cnc(N[C@@H]4CC[C@@H](C(=O)NC[C@@H]5COCCN5)C4)nc32)cc2cccnc12 [(1R,3R)-3-((3-bromo-1-(8-cyanoquinolin-6-yl)-1H-pyrazolo[3,4-d]pyrimidin-6-yl)amino)-N-(((R)-morpholin-3-yl)methyl)cyclopentane-1-carboxamide]	< 0.025
N#Cc1cc(-n2nc(Br)c3cnc(N[C@@H]4CC[C@@H](C(=O)NC[C@H]5COCCN5)C4)nc32)cc2cccnc12 [(1R,3R)-3-((3-bromo-1-(8-cyanoquinolin-6-yl)-1H-pyrazolo[3,4-d]pyrimidin-6-yl)amino)-N-(((S)-morpholin-3-yl)methyl)cyclopentane-1-carboxamide]	< 0.025
N#Cc1cc(-n2nc(Br)c3cnc(N[C@@H]4CC[C@@H](C(=O)N[C@@H]5CCNC5)C4)nc32)cc2cccnc12 [(1R,3R)-3-((3-bromo-1-(8-cyanoquinolin-6-yl)-1H-pyrazolo[3,4-d]pyrimidin-6-yl)amino)-N-((R)-pyrrolidin-3-yl)cyclopentane-1-carboxamide]	< 0.025
N#Cc1cc(-n2nc(Br)c3cnc(N[C@@H]4CC[C@@H](C(=O)N[C@H]5CCNC5)C4)nc32)cc2cccnc12 [(1R,3R)-3-((3-bromo-1-(8-cyanoquinolin-6-yl)-1H-pyrazolo[3,4-d]pyrimidin-6-yl)amino)-N-((S)-pyrrolidin-3-yl)cyclopentane-1-carboxamide]	< 0.025
N#Cc1cc(-n2nc(Br)c3cnc(N[C@@H]4CC[C@@H](C(=O)NCC5CC5)C4)nc32)cc2cccnc12 [(1R,3R)-3-((3-bromo-1-(8-cyanoquinolin-6-yl)-1H-pyrazolo[3,4-d]pyrimidin-6-yl)amino)-N-(cyclopropylmethyl)cyclo-pentane-1-carboxamide]	0.025 to 0.2
CC(C)NC(=O)[C@@H]1CC[C@@H](Nc2ncc3c(Br)nn(-c4cc(C#N)c5ncccc5c4)c3n2)C1 [(1R,3R)-3-((3-bromo-1-(8-cyanoquinolin-6-yl)-1H-pyrazolo[3,4-d]pyrimidin-6-yl)amino)-N-isopropylcyclopentane-1-carboxamide]	0.025 to 0.2
CNC(=O)[C@@H]1CC[C@@H](Nc2ncc3c(Br)nn(-c4cc(C#N)c5ncccc5c4)c3n2)C1 [(1R,3R)-3-((3-bromo-1-(8-cyanoquinolin-6-yl)-1H-pyrazolo[3,4-d]pyrimidin-6-yl)amino)-N-methylcyclopentane-1-carboxamide]	< 0.025
CNC(=O)[C@@H]1CC[C@@H](Nc2ncc3c(Br)nn(-c4cc(F)c5nc(C)ccc5c4)c3n2)C1 [(1R,3R)-3-((3-bromo-1-(8-fluoro-2-methyl-quinolin-6-yl)-1H-pyrazolo[3,4-d]pyrimidin-6-yl)amino)-N-methylcyclopentane-1-carboxamide]	0.025 to 0.2
CNC(=O)[C@]1(C)CC[C@@H](Nc2ncc3c(Br)nn(-c4cc(F)c5ncccc5c4)c3n2)C1 [(1R,3R)-3-((3-bromo-1-(8-fluoroquinolin-6-yl)-1H-pyrazolo[3,4-d]pyrimidin-6-yl)amino)-N,1-dimethylcyclopentane-1-carboxamide]	0.025 to 0.2
O=C(Nc1cnn(C2CC2)c1)[C@@H]1CC[C@@H](Nc2ncc3c(Br)nn(-c4cc(F)c5ncccc5c4)c3n2)C1 [(1R,3R)-3-((3-bromo-1-(8-fluoroquinolin-6-yl)-1H-pyrazolo[3,4-d]pyrimidin-6-yl)amino)-N-(1-cyclopropyl-1H-pyrazol-4-yl)cyclopentane-1-carboxamide]	0.2 to 0.5
CN=S(C)(=O)CCNC(=O)[C@@H]1CC[C@@H](Nc2ncc3c(Br)nn(-c4cc(F)c5ncccc5c4)c3n2)C1 (stereo partly drawn) [(1R,3R)-3-((3-bromo-1-(8-fluoroquinolin-6-yl)-1H-pyrazolo[3,4-d]pyrimidin-6-yl)amino)-N-(2-(N,S-dimethylsulfonimidoyl)ethyl)cyclopentane-1-carboxamide]	< 0.025
O=C(NCCO)[C@@H]1CC[C@@H](Nc2ncc3c(Br)nn(-c4cc(F)c5ncccc5c4)c3n2)C1 [(1R,3R)-3-((3-bromo-1-(8-fluoroquinolin-6-yl)-1H-pyrazolo[3,4-d]pyrimidin-6-yl)amino)-N-(2-hydroxyethyl)cyclopentane-1-carboxamide]	0.025 to 0.2
COCCNC(=O)[C@@H]1CC[C@@H](Nc2ncc3c(Br)nn(-c4cc(F)c5ncccc5c4)c3n2)C1 [(1R,3R)-3-((3-bromo-1-(8-fluoroquinolin-6-yl)-1H-pyrazolo[3,4-d]pyrimidin-6-yl)amino)-N-(2-methoxyethyl)cyclopentane-1-carboxamide]	0.025 to 0.2
O=C(N[C@@H]1CCNC[C@H]1F)[C@@H]1CC[C@@H](Nc2ncc3c(Br)nn(-c4cc(F)c5ncccc5c4)c3n2)C1 [(1R,3R)-3-((3-bromo-1-(8-fluoroquinolin-6-yl)-1H-pyrazolo[3,4-d]pyrimidin-6-yl)amino)-N-((3R,4R)-3-fluoropiperidin-4-yl)cyclo-pentane-1-carboxamide]	0.025 to 0.2
O=C(N[C@@H]1CNC[C@H]1F)[C@@H]1CC[C@@H](Nc2ncc3c(Br)nn(-c4cc(F)c5ncccc5c4)c3n2)C1 [(1R,3R)-3-((3-bromo-1-(8-fluoroquinolin-6-yl)-1H-pyrazolo[3,4-d]pyrimidin-6-yl)amino)-N-((3R,4R)-4-fluoropyrrolidin-3-yl)cyclo-pentane-1-carboxamide]	0.025 to 0.2

Continued, values first:

IC50 [µM]	SMILES
0.025 to 0.2	COCCNC(=O)[C@@H]1CC[C@@H](Nc2ncc3c(Br)nn(-c4cc(C(F)F)c5ncccc5c4)c3n2)C1 [(1R,3R)-3-((3-bromo-1-(8-(difluoromethyl)quinolin-6-yl)-1H-pyrazolo[3,4-d]pyrimidin-6-yl)amino)-N-(2-methoxyethyl)cyclopentane-1-carboxamide]
0.025 to 0.2	CNC(=O)[C@@H]1CC[C@@H](Nc2ncc3c(Br)nn(-c4cc(C(F)F)c5ncccc5c4)c3n2)C1 [(1R,3R)-3-((3-bromo-1-(8-(difluoromethyl)quinolin-6-yl)-1H-pyrazolo[3,4-d]pyrimidin-6-yl)amino)-N-methylcyclopentane-1-carboxamide]
0.025 to 0.2	COCCNC(=O)[C@@H]1CC[C@@H](Nc2ncc3c(Br)nn(-c4cc(Cl)c5ncccc5c4)c3n2)C1 [(1R,3R)-3-((3-bromo-1-(8-chloroquinolin-6-yl)-1H-pyrazolo[3,4-d]pyrimidin-6-yl)amino)-N-(2-methoxyethyl)cyclopentane-1-carboxamide]
0.025 to 0.2	CC(F)(F)CNC(=O)[C@@H]1CC[C@@H](Nc2ncc3c(Br)nn(-c4cc(C#N)c5ncccc5c4)c3n2)C1 [(1R,3R)-3-((3-bromo-1-(8-cyanoquinolin-6-yl)-1H-pyrazolo[3,4-d]pyrimidin-6-yl)amino)-N-(2,2-difluoropropyl)cyclopentane-1-carboxamide]
0.2 to 0.5	CCCCNC(=O)[C@@H]1CC[C@@H](Nc2ncc3c(Br)nn(-c4cc(C#N)c5ncccc5c4)c3n2)C1 [(1R,3R)-3-((3-bromo-1-(8-cyanoquinolin-6-yl)-1H-pyrazolo[3,4-d]pyrimidin-6-yl)amino)-N-butylcyclopentane-1-carboxamide]
0.025 to 0.2	CN(C)C(=O)[C@@H]1CC[C@@H](Nc2ncc3c(Br)nn(-c4cc(F)c5ncccc5c4)c3n2)C1 [(1R,3R)-3-((3-bromo-1-(8-fluoroquinolin-6-yl)-1H-pyrazolo[3,4-d]pyrimidin-6-yl)amino)-N,N-dimethylcyclopentane-1-carboxamide]
0.025 to 0.2	O=C(NCCN1CCNC1=O)[C@@H]1CC[C@@H](Nc2ncc3c(Br)nn(-c4cc(F)c5ncccc5c4)c3n2)C1 [(1R,3R)-3-((3-bromo-1-(8-fluoroquinolin-6-yl)-1H-pyrazolo[3,4-d]pyrimidin-6-yl)amino)-N-(2-(2-oxoimidazolidin-1-yl)ethyl)cyclo-pentane-1-carboxamide]
0.2 to 0.5	CS(=O)(=O)CCNC(=O)[C@@H]1CC[C@@H](Nc2ncc3c(Br)nn(-c4cc(F)c5ncccc5c4)c3n2)C1 [(1R,3R)-3-((3-bromo-1-(8-fluoroquinolin-6-yl)-1H-pyrazolo[3,4-d]pyrimidin-6-yl)amino)-N-(2-(methylsulfonyl)ethyl)cyclo-pentane-1-carboxamide]
0.025 to 0.2	CC1(CNC(=O)[C@@H]2CC[C@@H](Nc3ncc4c(Br)nn(-c5cc(F)c6ncccc6c5)c4n3)C2)COC1 [(1R,3R)-3-((3-bromo-1-(8-fluoroquinolin-6-yl)-1H-pyrazolo[3,4-d]pyrimidin-6-yl)amino)-N-((3-methyloxetan-3-yl)methyl)cyclopentane-1-carboxamide]
